{
  "source": "paper PMC4818757",
  "about": "“Small molecule inhibitors of the Dishevelled‐CXXC5 interaction are new drug candidates for bone anabolic osteoporosis therapy” (EMBO Molecular Medicine, 2016)",
  "key": {"[1]": {"tested_on": "ovariectomized (OVX) mice", "assay": "OVX-induced osteoporosis mouse model", "type": "in vivo", "details": "KY‐02327 20 mpk oral, PTH 0.06 mpk subcutaneous", "experimental": "Figure 6 Effects of KY‐02327 on OVX‐induced osteoporosis model mice • A–H Vehicle or 20 mg of KY‐02327 per kg of animal body weight (mpk) was orally administered or 0.06 mpk of the N‐terminal fragment of PTH (amino acids 1‐34) was subcutaneously injected into the Sham‐operated (Sham) or ovariectomized (OVX) mice on 5 sequential days per week for 4 weeks (n = 4). After calcein injection, the prepared femoral sections of the OVX mice were examined under fluorescence microscope to visualize integrated calcein (A, green, arrows). Nuclei were counterstained with DAPI (A, blue). Scale bars, 100 μm. Osteoblast numbers (B) and calcein double‐labeled surfaces (C) were measured in the femoral sections. The mouse femurs were analyzed using micro‐CT, and BMD (D) and BV/TV (E) were calculated from the micro‐CT data. The three‐dimensional images of femoral trabecular bone were reconstructed (F), and trabecular number (G) and trabecular separation (H) were calculated. Data Information: The data are the mean ± s.d. (error bars). Significance was assessed using Kruskal–Wallis test.\nThis animal study was approved by the Institutional Review Board of Severance Hospital, Yonsei University College of Medicine. The mice were housed in filter‐topped shoebox cages with a computerized environmental control system (MJ LTD, Seoul, Korea). The care and treatment of experimental animals were performed in accordance with institutional guidelines. The room temperature was maintained at 26.5°C with a relative humidity of approximately 40–70%. The mice were given a standard maintenance diet from Dae Han Bio Link (Daejeon, Korea). For OVX mouse experiments, the surgeries were performed with 8‐week‐old female BL6 mice under anesthesia with avertin (2,2,2‐tribromoethanol; Worthington Biochemical, Freehold, NJ) as described previously (Zahoor et al, 2014). After removing the hair, dorsal incisions were made into the dermal layers above both sides of the ovaries using dissection scissors. The connection between the fallopian tube and the uterine horn was cut, and the ovary was removed. The incision was then sutured with 3 single catgut stitches. Sham mice were used as controls. After 4 weeks, the OVX group was divided into three groups for oral administration of vehicle (saline containing 10% Tween‐60) or 20 mg of KY‐02327 per kg of animal body weight (mpk) of KY‐02327, or for subcutaneous injection of 0.06 mpk of N‐terminal fragment of PTH (amino acids 1–34), which were administered for 5 sequential days per week for 4 weeks. The animals were sacrificed, and the organs were harvested for analysis. For the calcein double‐labeling experiment (Pall et al, 1987), calcein (10 mpk in 2% sodium hydrocarbonate, pH 7.4) was injected twice, on the last day of the 2nd and 3rd week. All the mice were randomly assigned to each groups, and the investigators were blinded to the group allocation during the treatments and experiments.\nThe mouse femurs were scanned using a micro‐CT system (Skyscan 1072; Skyscan, Aartselaar, Belgium). The scanned image data were reconstructed to create 3D images and analyzed using the CT‐Analyzing Program (Skyscan). For femoral trabecular bone analysis, the femurs were scanned with a voxel size of 10 μm, beginning at the end of the growth plate and extending proximally along the diaphysis, and 80 continuous slices (beginning at 0.1 mm from the most proximal aspect of the growth plate in which both condyles were no longer visible) were selected for analysis.\nThe femurs of OVX mice and the calvariae of 4‐day‐old mice were fixed in 4% paraformaldehyde in PBS. The bones were then decalcified in 10 mM EDTA and embedded in paraffin. Five‐micrometer tissue sections were deparaffinized in 100% xylene followed by re‐hydration with sequential 100% to 50% ethanol washes. The sections were stained with hematoxylin and eosin (H&E), and light micrographs were captured using a SMZ645 Nikon microscope (Nikon, Tokyo, Japan). […]"}, "[2]": {"tested_on": "TA-98", "details": "TA-98, Without S-9 mix", "excerpt": "(§1) Appendix Table S3. Bacterial reverse mutation assay with KY-02327\n(§2) a Number of revertant colonies of treated plate/Number of revertant colonies of\n(§3) vehicle control plate (Maron & Ames, 1983).\n(§4) b Negative control. Vehicle: DMSO"}, "[3]": {"tested_on": "TA-100", "details": "TA-100, Without S-9 mix", "excerpt": "as §1, §2, §3, §4"}, "[4]": {"target": "CYP C29 (so in the source); probably CYP2C9) (Homo sapiens, UniProt P11712)", "sequence (P11712 whole entry)": "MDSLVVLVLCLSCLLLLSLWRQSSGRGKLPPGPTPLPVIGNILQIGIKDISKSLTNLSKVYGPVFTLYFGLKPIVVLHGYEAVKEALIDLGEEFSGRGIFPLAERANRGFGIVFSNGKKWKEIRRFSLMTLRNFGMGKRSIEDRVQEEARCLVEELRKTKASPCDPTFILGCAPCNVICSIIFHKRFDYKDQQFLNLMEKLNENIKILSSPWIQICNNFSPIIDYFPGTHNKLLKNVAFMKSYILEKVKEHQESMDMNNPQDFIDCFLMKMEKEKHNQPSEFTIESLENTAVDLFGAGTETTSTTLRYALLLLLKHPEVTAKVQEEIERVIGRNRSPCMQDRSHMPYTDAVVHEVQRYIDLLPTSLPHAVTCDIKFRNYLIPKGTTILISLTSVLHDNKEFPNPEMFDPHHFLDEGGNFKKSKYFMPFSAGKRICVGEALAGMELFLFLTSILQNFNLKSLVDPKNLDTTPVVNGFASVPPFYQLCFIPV", "assay": "Cytochrome P450 inhibition assay, C29", "excerpt": "Appendix Table S4. Cytochrome P450 (CYP) inhibition assay with 10 µ M KY-"}},
  "data": [
    {"compound": "PTH: N‐terminal fragment of PTH (amino acids 1‐34) [reference compound]", "values": [
      {"measurement": "destroyed trabecular bones (3D micro-CT images)", "setting": "[1]; 4 weeks", "value": "rescued"},
      {"measurement": "mineral contents of the bone (BMD), femur, micro‐CT", "setting": "[1]; 4 weeks", "value": "significantly increased"},
      {"measurement": "trabecular bone number", "setting": "[1]; 4 weeks", "value": "increase"},
      {"measurement": "trabecular separation", "setting": "[1]; 4 weeks", "value": "decrease"},
      {"measurement": "volume of bone (BV/TV)", "setting": "[1]; 4 weeks, vs vehicle", "value": "increased"},
      {"measurement": "calcein double‐labeled surface", "setting": "[1]; 5 days per week for 4 weeks", "value": "increased"},
      {"measurement": "new bone formation (calcein-labeled) in femur", "setting": "[1]; 5 days per week for 4 weeks", "value": "recovered"},
      {"measurement": "number of osteoblasts", "setting": "[1]; 5 days per week for 4 weeks", "value": "increased"}
    ]},
    {"compound": "O=[N+]([O-])c1ccc2c(c1)Cc1ccccc1-2", "note": "[2-NF, 2-nitrofluorene, reference compound]", "values": [
      {"measurement": "Factor (revertant colonies treated plate / vehicle control plate)", "setting": "[2]", "value": 9.4},
      {"measurement": "Revertant colonies/plate (Mean)", "setting": "[2]; dose (g/plate): KY-02327 1000, 2-NF 1", "value": "178 ± 16", "unit": "colonies/plate"}
    ]},
    {"compound": "[N-]=[N+]=[N-].[Na+]", "note": "[S.A, Sodium azide, reference compound]", "values": [
      {"measurement": "Factor (revertant colonies treated plate / vehicle control plate)", "setting": "[3]", "value": 5.6},
      {"measurement": "Revertant colonies/plate (Mean)", "setting": "[3]; dose (g/plate): KY-02327 1000, S.A 1", "value": "689 ± 20", "unit": "colonies/plate"}
    ]},
    {"compound": "Nc1ccc(S(=O)(=O)Nc2ccnn2-c2ccccc2)cc1", "note": "[Sulfaphenazole, reference compound]", "values": [
      {"measurement": "inhibition at 10 µM", "setting": "[4]", "value": 80.5, "unit": "%"}
    ]}
  ]
}
